Test results from PubChem BioAssay AID720608 (Broad Institute, 2013).
Inconclusive results are not listed.

Tested on: SR lymphoma cells viability, CellTiter-Glo ATP, 8-48 h
Assay: SR lymphoma cell viability over time, late-stage follow-up, mechanism study for HRAS target identification, CellTiter-Glo ATP luminescence, 8-48 h, dry powder (AID 720608)

SMILES | AC50 (measured here: 8 h treatment) [nM] | AC50 (measured here: 24 h treatment) [nM] | AC50 (measured here: 48 h treatment) [nM]
CC(C)(C)OC(=O)NCCOCCOCCOc1ccc(N(C(=O)CCl)C(C(=O)NCCc2ccccc2)c2cccs2)cc1Cl (stereo not given) | 265 | 61.1 | 53.1
COc1ccc(N(C(=O)CCl)C(C(=O)NCCc2ccccc2)c2cccs2)cc1Cl (stereo not given) | 119 | 46.8 | 42.3
C#CCCCC(=O)NCCOCCOCCOc1ccc(N(C(=O)CCl)C(C(=O)NCCc2ccccc2)c2cccs2)cc1Cl (stereo not given) | 2430 | 406 | 703
COC(=O)c1ccc([C@@H]2c3[nH]c4ccccc4c3C[C@@H](C(=O)OC)N2C(=O)CCl)cc1 | 112 | 17.1 | 18.6
Cc1onc(C(=O)N2CCN(C(c3ccc(Cl)cc3)c3ccc(Cl)cc3)CC2)c1[N+](=O)[O-] | 364 | 80.4 | 97.9
